Experimental data taken from patent US11833156B2, “Heterocyclic compounds as pad inhibitors” (JUBILANT EPIPAD LLC, priority 2017, dated 2023).

Assays:
PAD4 enzyme [1] = biological target: T1, PAD4 enzyme (Homo sapiens (Human), UniProt Q9UM07); assay: FP Binding Assay; conditions: for IC50: PAD4 1 uM, 10 nM fluorescein labelled probe JPAD-00085
Procedure: Binding of compounds with PAD4 enzyme was detected by FP assay. PAD4 enzyme was diluted to 1 uM in assay buffer (100 mM HEPES, 50 mM NaCl, 1 mM DTT, 5% Glycerol and 1 mM CHAPS) and added to wells containing various concentration of compounds or DMSO vehicle (1%) in a 384 well black plate. 10 nM of fluorescein labelled probe (JPAD-00085) was added to the plate. Assay plate was incubated for 60 minutes at room temperature before measuring FP reading at FP module (λex 485/λem 535 nm) on Pherastar. IC50 was calculated using XL-fit software model 205. (Ref: Nat Chem Biol. 2015 March; 11(3):189-91).

PAD4 enzyme [2] = biological target: T1, PAD4 enzyme; assay: Ammonia Release Biochemical Assay (citrullination detected via ammonia release); conditions: PAD4 120 nM, substrate BAEE, 60-min preincubation, read-out: NH3 release
Procedure: Ammonia Release Biochemical Assay
Citrullination assay was detected via ammonia release. PAD4 enzyme was diluted to 120 nM in assay buffer (100 mM HEPES, 50 mM NaCl, 2 mM DDT, 0.6 mg/mL BSA, pH 7.4) added to wells containing various concentration of compound or DMSO vehicle (1% final) in black 384 well plate. Following a 60-min preincubation at room temperature, the reaction was initiated by the addition of substrate (1.5 mM BAEE in 200 mM HEPES, 50 mM NaCl, 350 uM CaCl2, 2 mM, pH 7.4). The reaction was stopped after 60 min by addition of stop/detection buffer containing 50 mM EDTA, 2.6 mM of o-phthaladehyde and 2.6 mM DTT. Assay was incubated at room temperature for 90 min before measuring fluorescence's (λex 405/λem 460 nm) on Tecan reader. IC50 was calculated using XL-fit software model 205. (Ref: Nat Chem Biol. 2015 March; 11(3):189-91).

T1 sequence (Q9UM07 whole entry): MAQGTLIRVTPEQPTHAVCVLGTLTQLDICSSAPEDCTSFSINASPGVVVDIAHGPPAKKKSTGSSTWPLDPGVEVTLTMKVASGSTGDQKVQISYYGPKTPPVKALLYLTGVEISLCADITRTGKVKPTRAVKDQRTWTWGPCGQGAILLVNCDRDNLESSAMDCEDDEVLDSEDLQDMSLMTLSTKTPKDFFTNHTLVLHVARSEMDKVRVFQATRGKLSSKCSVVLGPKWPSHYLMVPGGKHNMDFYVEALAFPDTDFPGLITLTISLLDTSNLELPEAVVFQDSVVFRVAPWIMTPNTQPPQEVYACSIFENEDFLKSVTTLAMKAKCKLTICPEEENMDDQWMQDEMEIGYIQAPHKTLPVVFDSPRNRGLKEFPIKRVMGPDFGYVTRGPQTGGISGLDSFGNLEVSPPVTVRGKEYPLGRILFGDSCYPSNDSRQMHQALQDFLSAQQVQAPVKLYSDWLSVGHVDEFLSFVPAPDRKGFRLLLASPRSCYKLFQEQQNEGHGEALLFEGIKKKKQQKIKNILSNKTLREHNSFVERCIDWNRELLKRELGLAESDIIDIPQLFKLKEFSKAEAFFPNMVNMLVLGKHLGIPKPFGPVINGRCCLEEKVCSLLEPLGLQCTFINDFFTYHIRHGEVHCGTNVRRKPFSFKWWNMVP

## N[C@@H]1CCCN(C(=O)c2cc3c4c(c2)nc(-c2cc5ccccc5n2CC2CC2)n4CCO3)C1 [Example 1, (R)-(3-aminopiperidin-1-yl)(2-(1-(cyclopropylmethyl)-1H-indol-2-yl)-3,4-dihydro-5-oxa-1,2a-diazaacenaphthylen-7-yl)methanone]
PAD4 enzyme [1]
  IC50: 1000 to 10000 nM

## CCn1c(-c2nc3cc(C(=O)N4CCC[C@@H](N)C4)cc4c3n2CCO4)cc2cccnc21 [Example 5, (R)-(3-aminopiperidin-1-yl)(2-(1-ethyl-1H-pyrrolo[2,3-b]pyridin-2-yl)-3,4-dihydro-5-oxa-1,2a-diazaacenaphthylen-7-yl)methanone]
PAD4 enzyme [1]
  IC50: 1000 to 10000 nM
PAD4 enzyme [2]
  IC50: 1000 to 10000 nM

## N[C@@H]1CCCN(C(=O)c2cc3c4c(c2)nc(-c2cc5cc(F)ccc5n2CC2CC2)n4CCO3)C1 [Example 9, (R)-(3-aminopiperidin-1-yl)(2-(1-(cyclopropylmethyl)-5-fluoro-1H-indol-2-yl)-3,4-dihydro-5-oxa-1,2a-diazaacenaphthylen-7-yl)methanone]
PAD4 enzyme [1]
  IC50: ≤ 1000 nM
PAD4 enzyme [2]
  IC50: ≤ 1000 nM

## N[C@@H]1CCCN(C(=O)c2cc3c4c(c2)nc(-c2cc5ccccc5n2Cc2ccc(Cl)cc2)n4CCO3)C1 [Example 13, (R)-(3-aminopiperidin-1-yl)(2-(1-(4-chlorobenzyl)-1H-indol-2-yl)-3,4-dihydro-5-oxa-1,2a-diazaacenaphthylene-7-yl)methanone]
PAD4 enzyme [1]
  IC50: 1000 to 10000 nM
PAD4 enzyme [2]
  IC50: ≤ 1000 nM

## N[C@@H]1CCCN(C(=O)c2cc3c4c(c2)nc(-c2cc5ccccc5n2Cc2ccccc2F)n4CCO3)C1 [Example 14, (R)-(3-aminopiperidin-1-yl)(2-(1-(2-fluorobenzyl)-1H-indol-2-yl)-3,4-dihydro-5-oxa-1,2a-diazaacenaphthylene-7-yl)methanone]
PAD4 enzyme [1]
  inhibition of PAD4 enzyme activity in FP Binding assay: actively inhibiting PAD4 enzyme activity
PAD4 enzyme [2]
  IC50: 1000 to 10000 nM

## N[C@@H]1CCCN(C(=O)c2cc3c4c(c2)nc(-c2cc5ccccc5n2Cc2ccc(F)cc2)n4CCO3)C1 [Example 15, (R)-(3-aminopiperidin-1-yl)(2-(1-(4-fluorobenzyl)-1H-indol-2-yl)-3,4-dihydro-5-oxa-1,2a-diazaacenaphthylen-7-yl)methanone]
PAD4 enzyme [1]
  IC50: 1000 to 10000 nM
PAD4 enzyme [2]
  IC50: ≤ 1000 nM

## N[C@@H]1CCCN(C(=O)c2cc3c4c(c2)nc(-c2cc5ccccc5n2Cc2cccnc2)n4CCO3)C1 [Example 16, (R)-(3-aminopiperidin-1-yl)(2-(1-(pyridin-3-ylmethyl)-1H-indol-2-yl)-3,4-dihydro-5-oxa-1,2a-diazaacenaphthylen-7-yl)methanone]
PAD4 enzyme [1]
  IC50: 1000 to 10000 nM
PAD4 enzyme [2]
  IC50: ≤ 1000 nM

## COc1cc2cc(-c3nc4cc(C(=O)N5CCC[C@@H](N)C5)cc5c4n3CCO5)n(CC3CC3)c2cc1OC [Example 17, (R)-(3-aminopiperidin-1-yl)(2-(1-(cyclopropylmethyl)-5,6-dimethoxy-1H-indol-2-yl)-3,4-dihydro-5-oxa-1,2a-diazaacenaphthylen-7-yl)methanone]
PAD4 enzyme [1]
  IC50: 1000 to 10000 nM
PAD4 enzyme [2]
  IC50: ≤ 1000 nM

## COc1ccc(Cn2c(-c3nc4cc(C(=O)N5CCC[C@@H](N)C5)cc5c4n3CCO5)cc3ccccc32)cc1 [Example 19, (R)-(3-aminopiperidin-1-yl)(2-(1-(4-methoxybenzyl)-1H-indol-2-yl)-3,4-dihydro-5-oxa-1,2a-diazaacenaphthylen-7-yl)methanone]
PAD4 enzyme [1]
  inhibition of PAD4 enzyme activity in FP Binding assay: actively inhibiting PAD4 enzyme activity

## CN1CCn2c(-c3cc4ccccc4n3CC3CC3)nc3cc(C(=O)N4CCC[C@@H](N)C4)cc1c32 [Example 72, (R)-(3-aminopiperidin-1-yl)(2-(1-(cyclopropylmethyl)-1H-indol-2-yl)-6-methyl-5,6-dihydro-4H-imidazo[1,5,4-de]quinoxalin-8-yl)methanone]
PAD4 enzyme [1]
  inhibition of PAD4 enzyme activity in FP Binding assay: actively inhibiting PAD4 enzyme activity

## COc1ccc2cc(-c3nc4cc(C(=O)N5CCC[C@@H](N)C5)cc5c4n3CCN5)n(CC3CC3)c2c1 [Example 73, (R)-(3-aminopiperidin-1-yl)(2-(1-(cyclopropylmethyl)-6-methoxy-1H-indol-2-yl)-5,6-dihydro-4H-imidazo[1,5,4-de]quinoxalin-8-yl)methanone]
PAD4 enzyme [1]
  inhibition of PAD4 enzyme activity in FP Binding assay: actively inhibiting PAD4 enzyme activity

## N[C@@H]1CCCN(C(=O)c2cc3c4c(c2)nc(-c2cc5cc(F)c(F)cc5n2CC2CC2)n4CCN3)C1 [Example 77, (R)-(3-aminopiperidin-1-yl)(2-(1-(cyclopropylmethyl)-5,6-difluoro-1H-indol-2-yl)-5,6-dihydro-4H-imidazo[1,5,4-de]quinoxalin-8-yl)methanone]
PAD4 enzyme [1]
  inhibition of PAD4 enzyme activity in FP Binding assay: actively inhibiting PAD4 enzyme activity

## N[C@@H]1CCCN(C(=O)c2cc3c4c(c2)nc(-c2cc5ccccc5n2CC2CC2)n4CCN3S(=O)(=O)c2ccc(Cl)cc2)C1 [Example 81, (R)-(3-aminopiperidin-1-yl)(6-((4-chlorophenyl)sulfonyl)-2-(1-(cyclopropylmethyl)-1H-indol-2-yl)-5,6-dihydro-4H-imidazo[1,5,4-de]quinoxalin-8-yl)methanone]
PAD4 enzyme [2]
  IC50: ≥ 10000 nM

## N[C@@H]1CCCN(C(=O)c2cc3c4c(c2)nc(-c2cc5ccccc5n2CC2CC2)n4CCN3S(=O)(=O)C2CC2)C1 [Example 82, (R)-(3-aminopiperidin-1-yl)(2-(1-(cyclopropylmethyl)-1H-indol-2-yl)-6-(cyclopropylsulfonyl)-5,6-dihydro-4H-imidazo[1,5,4-de]quinoxalin-8-yl)methanone]
PAD4 enzyme [2]
  IC50: 1000 to 10000 nM

## CCOCCS(=O)(=O)N1CCn2c(-c3cc4ccccc4n3CC3CC3)nc3cc(C(=O)N4CCC[C@@H](N)C4)cc1c32 [Example 83, (R)-(3-aminopiperidin-1-yl)(2-(1-(cyclopropylmethyl)-1H-indol-2-yl)-6-((2-ethoxyethyl)sulfonyl)-5,6-dihydro-4H-imidazo[1,5,4-de]quinoxalin-8-yl)methanone]
PAD4 enzyme [2]
  IC50: 1000 to 10000 nM

## Cc1cccc2cc(-c3nc4cc(C(=O)N5CCC[C@@H](N)C5)cc5c4n3CCN5)n(CC3CC3)c12 [Example 84, (R)-(3-aminopiperidin-1-yl)(2-(1-(cyclopropylmethyl)-7-methyl-1H-indol-2-yl)-5,6-dihydro-4H-imidazo [1,5,4-de]quinoxalin-8-yl)methanone]
PAD4 enzyme [2]
  IC50: ≤ 1000 nM

## CC(=O)N1CCn2c(-c3cc4ccccc4n3CC3CC3)nc3cc(C(=O)N4CCC[C@@H](N)C4)cc1c32 [Example 85]
PAD4 enzyme [2]
  IC50: ≤ 1000 nM

## N[C@@H]1CCCN(C(=S)c2cc3c4c(c2)nc(-c2cc5ccccc5n2CC2CC2)n4CCN3)C1 [Example 86, (R)-(3-aminopiperidin-1-yl)(2-(1-(cyclopropylmethyl)-1H-indol-2-yl)-5,6-dihydro-4H-imidazo [1,5,4-de]quinoxalin-8-yl)methanethione]
PAD4 enzyme [2]
  IC50: ≤ 1000 nM

## N[C@@H]1CCCN(C(=O)c2cc3c4c(c2)nc(-c2cc5ccc(F)c(Cl)c5n2CC2CC2)n4CCO3)C1 [Example 87, (R)-(3-aminopiperidin-1-yl)(2-(7-chloro-1-(cyclopropylmethyl)-6-fluoro-1H-indol-2-yl)-3,4-dihydro-5-oxa-1,2a-diazaacenaphthylen-7-yl)methanone]
PAD4 enzyme [2]
  IC50: ≤ 1000 nM

## N[C@@H]1CCCN(C(=O)c2cc3c4c(c2)nc(-c2cc5cccc(Cl)c5n2Cc2cncnc2)n4CCO3)C1 [Example 88, (R)-(3-aminopiperidin-1-yl)(2-(7-chloro-1-(pyrimidin-5-ylmethyl)-1H-indol-2-yl)-3,4-dihydro-5-oxa-1,2a-diazaacenaphthylen-7-yl)methanone]
PAD4 enzyme [2]
  IC50: 1000 to 10000 nM
